Earlier results in US20050065129A1, “2-Alkylidene-19-nor-vitamin D derivatives for the treatment of frailty, muscle damage or sarcopenia” (Pfizer Inc, priority 2003, published 2005).

Key:
[1] = test system: Intestinal Calcium Transport; conditions: chronic 7 days, 130 and/or 260 pmol/day, rats
[2] = test system: Serum Calcium (Bone Calcium Mobilization); conditions: chronic 7 days, rats; for bone calcium mobilization activity (in words): 130 and 260 pmol/day

Question: For C=C1/C(=C\C=C2/CCC[C@]3(C)[C@@H]([C@H](C)CCCC(C)(C)O)CC[C@@H]23)C[C@@H](O)C[C@@H]1O [1,25-(OH)2D3, 1,25-dihydroxyvitamin D3, reference compound], which “intestinal calcium transport activity (in words)” value [1] is on record?
Answer: The value was “expected elevation”.

Question: For C=C1[C@H](O)CC(=C/C=C2\CCC[C@]3(C)[C@@H]([C@H](C)CCCC(C)(C)O)CC[C@@H]23)C[C@H]1O [2-Methylene-19-Nor-1,25-(OH)2D3, 1α,25-dihydroxy-2-methylene-19-nor-vitamin D3], which “intestinal calcium transport activity (in words)” value [1] is on record?
Answer: Its value is “no intestinal calcium transport activity”.

Question: What about the “bone calcium mobilization activity (in words)” value [2] of the same molecule?
Answer: Its value is “extremely strong bone calcium mobilization”.

Question: And the “bone calcium mobilization (serum calcium) activity relative to 1,25-(OH)2D3 (native hormone)” value ([2]; estimate)?
Answer: Its value is 10-100 times.

Question: Which results are given for C=C1[C@H](O)CC(=C/C=C2\CCC[C@]3(C)[C@@H]([C@@H](C)CCCC(C)(C)O)CC[C@@H]23)C[C@H]1O [2-Methylene-19-Nor-20S-1,25-(OH)2D3, (20S)-1α,25-dihydroxy-2-methylene-19-nor-vitamin D3]?
Answer: intestinal calcium transport activity (in words) [1]: no significant change; bone calcium mobilization activity (in words) [2]: most potent compound tested
